The assay deals with human orexin type 2 receptor (hOX2R) (Homo sapiens (Human), UniProt O43614). Description: Measurement of orexin type 2 receptor agonist activity (Experimental Example 2-1, FLIPR intracellular Ca2+). It counts as cell-based. An excerpt:
To obtain a cell clone stably expressing human orexin type 2 receptor, human orexin type 2 receptor cDNA was inserted into pcDNA3.1(+) plasmid vector (Invitrogen), and a plasmid DNA for expression of human orexin type 2 receptor (pcDNA3.1(+)/hOX2R) was cloned. The plasmid DNA was introduced into CHO-dhfr cell by an electroporation method, and human orexin type 2 receptor expressing clone cells were obtained by limiting dilution method by using G418 drug resistance as a selection marker.
Chinese hamster ovary (CHO) dhfr-cells forcibly expressing human orexin type 2 receptor (hOX2R) were seeded in each well of Black clear bottom plate (384 wells) (Becton, Dickinson and Company) by 10,000 cells, and cultured for 16 hr in an MEM-alpha (Nikken-Bio Co., Ltd.) medium containing 100 U/ml penicillin, 100 μg/ml streptomycin, […] G418 (all above Invitrogen), and 10% fetal calf serum (Thermo), under the conditions of 37° C., 5% CO2. […] A test compound was dissolved in dimethyl sulfoxide to 10 mM, and then diluted with assay buffer 2 (20 mM HEPES, Hanks' balanced salt solution (Invitrogen), 0.1% bovine serum albumin). For the reaction, a test compound solution (10 μL) was added using Fluorescent Imaging Plate Reader TETRA (FLIPR TETRA; manufactured by Molecular Devices), a fluorescence value (excitation wavelength 488 nm, measurement wavelength 570 nm) of each well was measured every one second for 1 min, and the agonist activity was determined using the area of the fluorescence value as an indicator of intracellular Ca^2+ concentration.

The mark [1] stands for this setting: CHO dhfr- cells expressing hOX2R, FLIPR TETRA Ca2+ fluorescence (Exp. Ex. 2-1).

As usually defined, the Emax is the size of the effect at its maximum, as opposed to the concentration needed. Broadly, the EC50 is the concentration at which the effect is half-maximal. The low end stands for greater potency, the high end for weaker potency.

human orexin type 2 receptor (hOX2R), sequence (O43614 whole entry): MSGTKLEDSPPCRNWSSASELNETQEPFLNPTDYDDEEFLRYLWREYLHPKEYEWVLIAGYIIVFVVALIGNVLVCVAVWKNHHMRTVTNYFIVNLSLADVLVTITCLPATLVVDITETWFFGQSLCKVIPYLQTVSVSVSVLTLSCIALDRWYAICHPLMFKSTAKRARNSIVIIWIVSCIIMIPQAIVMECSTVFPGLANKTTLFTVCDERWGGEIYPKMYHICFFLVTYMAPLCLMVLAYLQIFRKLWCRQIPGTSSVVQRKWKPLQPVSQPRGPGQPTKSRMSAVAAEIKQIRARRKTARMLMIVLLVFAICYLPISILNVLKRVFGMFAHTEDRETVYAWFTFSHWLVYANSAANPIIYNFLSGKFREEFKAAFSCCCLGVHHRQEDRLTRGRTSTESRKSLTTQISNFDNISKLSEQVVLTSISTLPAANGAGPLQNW

Compound `COc1ccccc1[C@H]1CC[C@@H](OC[C@H]2[C@@H](NS(C)(=O)=O)CCCN2C(=O)C2CC2)CC1` [Example 28, N-((2R,3S)-1-(cyclopropylcarbonyl)-2-(((cis-4-(2-methoxyphenyl)cyclohexyl)oxy)methyl)piperidin-3-yl)methanesulfonamide] registered an Emax at 30 µM (value at 30 uM concentration, orexin B as full agonist = 100%) of 98%.
Regarding `CCOC(=O)N1CCC[C@H](NS(C)(=O)=O)[C@@H]1CO[C@H]1CC[C@@H](c2ccccc2)CC1` [Example 303, ethyl (2R,3S)-3-((methylsulfonyl)amino)-2-(((cis-4-phenylcyclohexyl)oxy)methyl)-piperidine-1-carboxylate], the response under setting [1] was half-maximal at 15 nM (EC50).
`COc1cccc([C@H]2CC[C@@H](OC[C@H]3[C@@H](NS(C)(=O)=O)CCCN3C(=O)C3CC3)CC2)c1` [Example 304, N-((2R,3S)-1-(cyclopropylcarbonyl)-2-(((cis-4-(3-methoxyphenyl)cyclohexyl)oxy)-methyl)piperidin-3-yl) methanesulfonamide] returned a 50% effective concentration (EC50) under setting [1] of 23 nM.
As to “cis-N-ethyl-3- ((methylsulfonyl)amino)-2- (((cis-2-phenyl-1,3-dioxan- 5-yl)oxy)methyl) piperidine-1-carboxamide [Example 140]”, under setting [1], a half-maximal effect (EC50) was put at 390 nM and the “Emax (%)” value was determined as 92%.

Values taken from patent publication US11292766B2, “Substituted piperidine compound and use thereof” (Takeda Pharmaceutical Company Limited, priority 2016, dated 2022).
